In patent US12493045B2, “Multi-target crosslinkers and uses thereof” (The Regents of the University of California, priority 2018, dated 2025):
Residue numbers refer to the chain shown, from its start.

Experiments:
[1] = biological target: Bovine Serum Albumin (BSA) (Bos taurus, UniProt P02769); test: CXMS analysis of cross-linked BSA
Procedure: NHSF Cross-links Bovine Serum Albumin.
BSA: In a 20 μL reaction, 10 μM BSA (69 kDa, in PBS buffer, pH 7.5) was cross-linked at RT for 1 h with 1 mM BS2G or 1 mM NHSF, which corresponded to a 1:100 protein:cross-linker molar ratio. BS2G cross-linking reaction was terminated at RT by adding 20 mM ammonium bicarbonate and incubating for 20 min. NHSF cross-linking reaction was terminated at RT by adding 10 mM Dithiothreitol (DTT) and incubating for 20 min.
Protein digestion. All protein samples were precipitated by six volumes of acetone at −20° C. for 30 min. Precipitated proteins were dried in air and resuspended in 8 M urea, 100 mM Tris, pH 8.5. After reduction with 2 mM DTT for 20 min and alkylation with 10 mM iodoacetamide for 15 min in the dark, samples were diluted to 2 M urea with 100 mM Tris, pH 8.5, and digested with trypsin (at 50:1 protein:enzyme ratio) at 37° C. for 16 h. Digestion was stopped by adding formic acid to 5% final concentration, and digested peptides were desalted with stagetip.
Tandem mass spectrometric analysis. Mass spectrometry experiments were performed using an Orbitrap Fusion Lumos™ instrument (ThermoFisher, San Jose, CA) coupled with an UltiMate™ 3000 nano LC. Mobile phase A and B were water and acetonitrile, respectively, with 0.1% formic acid. […]

[2] = biological target: T1, Glutathione S-Transferase (GST) (Escherichia coli, UniProt P0A9D2); test: Cross-linking of GST (SDS-PAGE, Western blot, CXMS)
T1 sequence (P0A9D2 1-201): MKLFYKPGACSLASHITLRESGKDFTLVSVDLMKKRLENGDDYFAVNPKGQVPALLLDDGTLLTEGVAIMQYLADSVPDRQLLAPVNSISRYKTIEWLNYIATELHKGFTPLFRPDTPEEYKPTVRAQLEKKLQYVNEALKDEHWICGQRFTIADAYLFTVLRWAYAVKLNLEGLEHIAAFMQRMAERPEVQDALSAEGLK
Procedure: NHSF Cross-links Glutathione S-Transferase. To further validate the cross-linking specificity of NHSF, the homodimeric Glutathione S-Transferase (GST) was cross-linked by NHSF or BS2G.
Peptide and protein cross-linking. […] BS2G cross-linking reaction was terminated at RT by adding 20 mM ammonium bicarbonate and incubating for 20 min. NHSF cross-linking reaction was terminated at RT by adding 10 mM Dithiothreitol (DTT) and incubating for 20 min. GST: In a 20 μL reaction, 10 μM GST (23 kDa, in PBS buffer, pH 7.5) was cross-linked at RT for 1 h with 0.5 mM BS2G or 0.5 mM NHSF, which corresponded to a 1:50 protein:cross-linker molar ratio. The cross-linking reactions were similarly terminated as described in the BSA section above.

[3] = tested on: E. coli whole cell lysate; test: CXMS analysis of cross-linked E. coli whole cell lysate; conditions: 10 mg/mL lysate, 40 mM crosslinker, RT 2 h
Procedure: To determine whether NHSF could be used in complex biological samples to generate novel cross-links for MS identification, we applied BS2G and NHSF on E. coli whole cell lysate.
Preparation of E. coli cell lysate. DH10β bacterial cells were cultured overnight. After cells were harvested by centrifugation, cell pellets were washed twice with PBS. Cells were resuspended with lysis buffer (50 mM Hepes, pH 8.3, 150 mM NaCl, 1×EDTA-free Complete Protease Inhibitor Cocktail) and incubate with lysozyme (1 mg/mL), DNase I (0.5 mg/mL) and RNase A (0.1 mg/mL) at 4° C. for 30 min. Cell lysates were sonicated for 3 min with 30% energy and filtrated with Amicon-0.5 ml 10K unit for 3 times.
Peptide and protein cross-linking. […] E. coli cell lysate: 20 uL lysate (10 mg/mL protein, 50 mM Hepes, pH 8.3, 150 mM NaCl) was incubate with 40 mM BS2G or 40 mM NHSF at RT for 2 h. BS2G cross-linking reaction was terminated at RT by adding 100 mM ammonium bicarbonate and incubating for 20 min. NHSF cross-linking reaction was terminated at RT by adding 100 mM DTT and incubating for 20 min.
Protein digestion. All protein samples were precipitated by six volumes of acetone at −20° C. for 30 min. Precipitated proteins were dried in air and resuspended in 8 M urea, 100 mM Tris, pH 8.5. […]

peptide 7KR (Ac-AAAKAAR) = test: Reaction of crosslinker with model peptide 7KR (mass spectra); format: biochemical; conditions: 10 μM peptide, 10 μM crosslinker, PBS pH 7.5, RT 1 h
From the text: Reaction of NHSF with Model Peptide. We first tested the reactivity of NHSF with a model peptide (Ac-AAAKAAR (SEQ ID NO:1), 7KR) with a single Lys as a reactive group, and compared its reactivity towards BS2G (bis(sulfosuccinimidyl) 2,2,4,4-glutarate-d4, FIG. 2A), a commercial NHS-based homo-bifunctional crosslinker of similar length. […] Owing to the low reactivity of sulfonyl-fluorides and the lack of reactive groups in 7KR, additional reaction was not observed with the Arg sidechain.
Peptide and protein cross-linking.

[4] = tested on: SSB-19(3×) or SSB-ATC(4×) complex; test: SSB protein-DNA oligo crosslinking (denaturing TBE-urea gel shift); format: biochemical; conditions: 19(3×) or ATC(4×) DNA, 1 mM crosslinker, UV 365 nm 15 min
HEK293T cells = test: Toxicity on incubation with HEK293T cells; format: cell-based, mammalian; conditions: 0.6 mM HoQM incubated for different time duration (4 or 8 hr)
[5] = biological target: endogenous EGFR in MCF7 cells (Homo sapiens, UniProt P00533); test: Crosslinking of endogenous EGFR on mammalian cell surface (Western blot); format: cell-based; conditions: BS^3 as positive control
WT 14-3-3 protein = biological target: T2, WT 14-3-3 protein (Homo sapiens, UniProt P63104); test: Tandem MS (CXMS) of crosslinked 14-3-3; format: biochemical
T2 sequence (P63104 1-245): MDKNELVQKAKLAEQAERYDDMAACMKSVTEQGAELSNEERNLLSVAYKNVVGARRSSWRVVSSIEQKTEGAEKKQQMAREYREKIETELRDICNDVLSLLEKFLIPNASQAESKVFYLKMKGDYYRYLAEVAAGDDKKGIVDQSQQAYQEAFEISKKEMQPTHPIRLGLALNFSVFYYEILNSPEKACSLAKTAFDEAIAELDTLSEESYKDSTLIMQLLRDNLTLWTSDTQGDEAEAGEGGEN
Procedure: Tryptic digestion of cross-linked proteins. Protein digestion was carried out by following a procedure described previously.^[28] Briefly, after crosslinking protein samples were quenched by adding 100 mM Tris-HCI, pH 7.4 for 15 min. […] Protein was collected by centrifugation for 10 min at 15,000 g. […] Digestion was terminated by adding formic acid at final concentration 5% (v/v). Digested peptides were desalted with C18 ZipTip, and eluted peptides were dried down with SpeedVac.
Mass spectrometry. Digested peptides were dissolved in 200 mM NH4HCO3 after clean-up and then subject to tandem mass spectrometry on a Thermo Q-Exactive Orbitrap. Crosslinked peptides. Peptides were separated by nano-LC Ultimate 3000 high-performance liquid chromatography system using an Acclaim PepMap C18 column (Thermo Scientific). […] The Q-Exactive mass spectrometer was operated in data-dependent mode with one full MS scan at R=70,000 (m/z=200) followed by ten HCD MS/MS scans at R=17,500 (m/z=200) using a stepped normalized collision energy of 28, 30, 35 eV. The AGC targets for the MS1 and MS2 scans were 3×10^6 and 1×10^5, respectively, and the maximum injection time for MS1 was 250 ms, and for MS2 was 200 ms. Precursors of the +1, +6 or above, or unassigned charge states were rejected; exclusion of isotopes was enabled; dynamic exclusion was set to 30 s. The crosslinking mass spectra were analyzed with pLink 2.3.^[29]

[6] = tested on: SSB protein with viral M13mp18 DNA; test: SSB protein-M13mp18 DNA crosslinking (denaturing TBE-urea gel shift); format: biochemical; conditions: 1 mM NHQM, UV 365 nm 15 min
Procedure: that are reported to interact with SSB^[24] [25] The SSB-DNA complex was treated with NHQM and UV activation, and analyzed by denaturing TBE-urea gel shift assay to detect covalent crosslinking between SSB and DNA. […] We further investigated protein-DNA crosslinking by incubating a natural single stranded circular viral DNA M13mp18 with the SSB protein.^[26] As shown in FIG. 21B (also FIGS. 22A-22B), the M13mp18 control DNA run as two isoforms in the denatured TBE-Urea gel due to its large size, a major form remained in the well and a minor form migrating in the gel.

[7] = biological target: epidermal growth factor receptor (EGFR) (Homo sapiens, UniProt P00533); test: Crosslinking of overexpressed EGFR on HEK293T cells (Western blot); conditions: HEK293T overexpressing EGFR, 4 mM NHQM, UV 365 nm 15 min
Procedure: We subsequently tested NHQM's crosslinking ability in mammalian cells. […] Therefore, we tested using NHQM to crosslink proteins on mammalian cell surfaces.
Plasmid pCDNA3.1-14-3-3, pCDNA3.1-GST, or pCDNA3.1-EGFR (2 μg each) was transfected into one well of 6-well plate of HEK293T cells, respectively. After transfection, the cells were cultured at 37° C. for additional 24 hr. The cells were harvested and washed with PBS, pH 7.4 for one time, followed by resuspension in 50 μL PBS, pH 7.4. The cells were either added nothing or added with 4 mM NHQM and incubated at RT for 15 min. Then the cells were illuminated with or without UV at wavelength 365 nm for another 15 min. After that, the reaction was treated by adding 100 mM Tris-HCI, pH 7.5 and incubated at RT for 15 min. The samples were then quickly treated with 2×SDS loading dye containing 100 mM DTT, boiled at 95° C. for 5 mins, and analyzed by running Western blot using an anti-His antibody.

[8] = biological target: T3, 14-3-3 protein (WT homodimer) (Homo sapiens, UniProt P63104); test: Dimeric crosslinking of 14-3-3 WT in vitro (SDS-PAGE); format: biochemical
T3 sequence (P63104 1-245): T2 sequence (P63104 1-245)
From the text: We initially designed and synthesized a heterobifunctional crosslinker NHQM containing an NHS ester and a photocaged ortho-quinone methide (o-QM) (FIG. 7A). Two fluorines were installed at the methyl group ortho to the phenolic hydroxyl group, which was photocaged by an o-nitrobenzyl group. When in proximity to proteins, the reactive NHS ester will react with exposed Lys residues, planting the photocaged o-QM next to residues on interaction partners. UV release of o-nitrobenzyl induces elimination of a fluoride ion to generate o-QM spontaneously, which will subsequently crosslink with nearby nucleophilic side chains (FIG. 7A). […] We further studied the crosslinking rate by varying the duration of UV treatment immediately after addition of NHQM.
(§1) Following crosslinking, NHQM results in a short and rigid linkage, which requires close contact of target residue pairs for effective crosslinking. We therefore tested whether this feature of NHQM could be used to readily determine protein dimerization in vitro and in cell lysates. It has been reported that three mutations (^12LAE^14→^12QQR^14) of 14-3-3 disrupt the dimer interface to form a monomer, leading to a distinct function from WT 14-3-3, such as chaperone activity.^[17] [18] However, previously the 14-3-3(QQR) mutant was isolated from cells and then characterized as a monomer using size exclusion chromatography. This in vitro process is tedious, and the results may not represent what occur in the cellular environment. We first treated purified 14-3-3 WT and QQR mutant with various amounts of NHQM and illuminated with UV light of 365 nm (FIGS. 9A-9B). […] We then applied NHQM directly to cell lysates of E. coli cells expressing either 14-3-3 WT or its QQR mutant, without isolating the 14-3-3 proteins.
NHQM mediated 14-3-3 crosslinking in vitro.
(§2) Utilizing NHQM to differentiate 14-3-3 dimer versus monomer.
HoQM mediated 14-3-3 crosslinking in vitro.

[9] = biological target: T4, 14-3-3 expressed in HEK293T cells (Homo sapiens, UniProt P63104); test: 14-3-3 crosslinking in mammalian cells (Western blot); conditions: 4 mM NHQM, UV 365 nm 15 min
T4 sequence (P63104 1-245): T2 sequence (P63104 1-245)
Procedure: We subsequently tested NHQM's crosslinking ability in mammalian cells. We incubated NHQM with live mammalian cells expressing the dimeric glutathione transferase (GST)^[9] or 14-3-3. […] Therefore, we tested using NHQM to crosslink proteins on mammalian cell surfaces. […] In addition, we further explored whether NHQM could probe endogenous mammalian proteins at physiologically relevant conditions. With this aim, we cultured MCF7 cells and treated them with or without NHQM, with or without UV, using the amine-reactive crosslinker bissulfosuccinimidyl suberate (BS^3) as a positive control.
Plasmid pCDNA3.1-14-3-3, pCDNA3.1-GST, or pCDNA3.1-EGFR (2 μg each) was transfected into one well of 6-well plate of HEK293T cells, respectively. After transfection, the cells were cultured at 37° C. for additional 24 hr. The cells were harvested and washed with PBS, pH 7.4 for one time, followed by resuspension in 50 μL PBS, pH 7.4. […] The samples were then quickly treated with 2×SDS loading dye containing 100 mM DTT, boiled at 95° C. for 5 mins, and analyzed by running Western blot using an anti-His antibody.
Plasmid pCDNA3.1-14-3-3 (2 μg) was transfected into one well of 6-well plate of HEK293T cells. […] The samples were then quickly treated with 2×SDS loading dye containing 100 mM DTT, boiled at 95° C. for 5 min, and analyzed with Western blot using an anti-His antibody.

Thioredoxin (Trx) = Thioredoxin (Trx) (Escherichia coli, UniProt P0AA25); conditions: 1 mM or 10 mM NHQM, UV 365 nm 15 min, E. coli cell lysate
Procedure: We started by testing NHQM's ability to crosslink interacting proteins in E. coli cell lysates. […] We expressed His-tagged Trx in E. coli cells, and then applied NHQM to the cell lysate followed by UV activation.
Plasmid pBAD-Trx was transformed into BL21(DE3) E. coli cells, and the Trx protein expression was carried out following procedures described above except that the cell culture volume was decreased to 20 mL. After protein expression, the cells were harvested and resuspended in 15 mL 50 mM sodium phosphate buffer containing 200 mM NaCI, pH 7.5. The cells were broken by sonification. 15 μL cell suspension were taken and added with 0, 1, or 10 mM NHQM and incubated at RT for 15 min, followed by UV illumination at wavelength 365 nm for another 15 min. The reaction was then treated by adding 100 mM Tris-HCI, pH 7.5 and incubated at RT for 15 min. The samples were then quickly treated with SDS loading dye containing 100 mM DTT, boiled at 95° C. for 5 min, and then analyzed with Western blot using anti-His antibody.

14-3-3(QQR) mutant = biological target: T5, 14-3-3(QQR) mutant (Homo sapiens, UniProt P63104, A13Q/E14R/L12Q); test: Crosslinking of monomeric 14-3-3(QQR) mutant in vitro (SDS-PAGE); format: biochemical; conditions: 0-0.4 mM NHQM, UV 365 nm 15 min
T5 sequence (P63104 1-245 L12Q/A13Q/E14R): T2 sequence (P63104 1-245) with L12Q, A13Q, E14R
From the text: as §1, §2

[10] = biological target: glutathione transferase (GST) expressed in HEK 293T cells (Escherichia coli, UniProt P0A9D2); test: GST crosslinking in mammalian cells (Western blot); format: cell-based; conditions: 4 mM NHQM, UV 365 nm 15 min
[11] = biological target: T6, 14-3-3 WT in E. coli cell lysate (Homo sapiens, UniProt P63104); test: Crosslinking of 14-3-3 WT in E. coli cell lysate (Western blot); format: biochemical
T6 sequence (P63104 1-245): T2 sequence (P63104 1-245)
From the text: as §1

[12] = biological target: T7, 14-3-3 QQR mutant in E. coli cell lysate (Homo sapiens, UniProt P63104, A13Q/E14R/L12Q); test: Crosslinking of 14-3-3 QQR mutant in E. coli cell lysate (Western blot); format: biochemical
T7 construct: expressed in transfected cells; host or cells: E. coli, cell lysate
T7 sequence (P63104 1-245 L12Q/A13Q/E14R): T2 sequence (P63104 1-245) with L12Q, A13Q, E14R
From the text: as §1

Bovine Serum Albumin (BSA), sequence (P02769 25-607): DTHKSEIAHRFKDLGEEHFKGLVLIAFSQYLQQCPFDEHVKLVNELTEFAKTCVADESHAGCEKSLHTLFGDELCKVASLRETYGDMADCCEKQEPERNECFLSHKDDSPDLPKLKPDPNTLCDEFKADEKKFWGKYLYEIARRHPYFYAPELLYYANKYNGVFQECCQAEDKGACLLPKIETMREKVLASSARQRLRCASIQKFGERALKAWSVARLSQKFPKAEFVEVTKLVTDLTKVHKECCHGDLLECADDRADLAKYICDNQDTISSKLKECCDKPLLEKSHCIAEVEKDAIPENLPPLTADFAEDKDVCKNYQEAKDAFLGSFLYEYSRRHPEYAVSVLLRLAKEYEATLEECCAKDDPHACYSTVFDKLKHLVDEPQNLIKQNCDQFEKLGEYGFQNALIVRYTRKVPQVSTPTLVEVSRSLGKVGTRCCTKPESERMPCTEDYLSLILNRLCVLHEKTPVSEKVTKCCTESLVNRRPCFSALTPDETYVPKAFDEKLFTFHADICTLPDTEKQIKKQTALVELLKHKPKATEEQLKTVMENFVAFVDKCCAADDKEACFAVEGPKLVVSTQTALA
endogenous EGFR in MCF7 cells, sequence (P00533 25-1210): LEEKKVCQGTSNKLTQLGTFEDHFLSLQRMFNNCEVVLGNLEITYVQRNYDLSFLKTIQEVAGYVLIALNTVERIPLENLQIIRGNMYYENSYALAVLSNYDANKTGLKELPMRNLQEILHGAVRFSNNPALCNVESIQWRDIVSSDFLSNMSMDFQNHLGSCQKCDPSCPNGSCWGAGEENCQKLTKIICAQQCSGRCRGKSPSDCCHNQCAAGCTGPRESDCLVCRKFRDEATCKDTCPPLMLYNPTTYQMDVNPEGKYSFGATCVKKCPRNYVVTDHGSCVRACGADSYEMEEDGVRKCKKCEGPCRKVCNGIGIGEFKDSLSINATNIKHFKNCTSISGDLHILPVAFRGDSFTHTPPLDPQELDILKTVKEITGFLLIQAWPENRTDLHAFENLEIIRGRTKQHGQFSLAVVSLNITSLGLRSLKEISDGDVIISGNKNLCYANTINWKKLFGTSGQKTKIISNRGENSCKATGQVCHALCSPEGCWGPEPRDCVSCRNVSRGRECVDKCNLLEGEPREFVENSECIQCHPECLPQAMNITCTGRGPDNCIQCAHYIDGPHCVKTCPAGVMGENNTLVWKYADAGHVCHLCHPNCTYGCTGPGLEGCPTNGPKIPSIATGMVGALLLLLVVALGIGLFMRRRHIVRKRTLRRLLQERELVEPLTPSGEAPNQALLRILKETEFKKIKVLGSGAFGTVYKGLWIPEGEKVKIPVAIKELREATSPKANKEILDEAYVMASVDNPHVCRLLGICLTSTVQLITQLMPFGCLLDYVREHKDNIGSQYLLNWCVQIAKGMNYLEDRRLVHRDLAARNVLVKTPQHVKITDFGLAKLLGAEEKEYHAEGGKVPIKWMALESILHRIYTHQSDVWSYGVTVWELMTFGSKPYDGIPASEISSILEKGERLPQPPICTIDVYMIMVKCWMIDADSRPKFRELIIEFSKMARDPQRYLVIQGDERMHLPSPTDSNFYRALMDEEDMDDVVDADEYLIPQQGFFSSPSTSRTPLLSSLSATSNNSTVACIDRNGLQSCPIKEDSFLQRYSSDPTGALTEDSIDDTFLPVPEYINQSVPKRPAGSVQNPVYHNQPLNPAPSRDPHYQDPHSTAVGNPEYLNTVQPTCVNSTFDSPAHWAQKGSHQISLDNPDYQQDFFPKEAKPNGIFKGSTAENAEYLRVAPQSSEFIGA
epidermal growth factor receptor (EGFR), sequence (P00533 25-1210): as above
Thioredoxin (Trx), sequence (P0AA25 whole entry): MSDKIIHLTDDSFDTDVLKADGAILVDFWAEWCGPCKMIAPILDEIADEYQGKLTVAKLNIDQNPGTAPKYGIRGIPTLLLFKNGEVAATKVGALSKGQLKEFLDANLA

`[2H]C([2H])(CC(=O)ON1C(=O)CC(S(=O)(=O)O)C1=O)C([2H])([2H])C(=O)ON1C(=O)CC(S(=O)(=O)O)C1=O` (stereo not drawn) [BS2G, bis(sulfosuccinimidyl) 2,2,4,4-glutarate-d4] was tested, and the “Inter-peptide cross-links identified by MS” value ([1]; 10 μM BSA, 1 mM crosslinker, RT 1 h) was 18, the “Cross-linked peptides exceeding the distance limit” value ([1]; limit of 20 Å Cα-Cα, BSA structure PDB 3V03) was “four” and the “Cross-linked peptides identified by MS” value ([2]; 10 μM GST, 0.5 mM crosslinker, RT 1 h) was 15. For the same molecule, the “Cross-links incompatible with the GST structure” value ([2]; out of 15 cross-links, PDB 1N2A) was 6, the Inter-linked peptides identified [3] was 106 and the “Products detected after reaction with peptide 7KR” value (peptide 7KR (Ac-AAAKAAR)) was “both a mono-linked peptide as well as the cross-linked dimer”.
For `O=C(CCCCCCC(=O)ON1C(=O)CC(S(=O)(=O)O)C1=O)ON1C(=O)CC(S(=O)(=O)O)C1=O` (stereo not drawn) [BS^3, bissulfosuccinimidyl suberate, reference compound], the “SSB-DNA crosslinking (upshifted band)” value [4] was “did not result in SSB-DNA crosslinking”.
With `O=C(c1ccc(OCc2ccccc2[N+](=O)[O-])c(C(F)F)c1)N1CCN(C(=O)c2ccc(OCc3ccccc3[N+](=O)[O-])c(C(F)F)c2)CC1` [HoQM] the “Toxicity to HEK293T cells” value (HEK293T cells) was “without apparent toxicity”.
For `O=C(ON1C(=O)CCC1=O)c1ccc(OCc2ccccc2[N+](=O)[O-])c(C(F)F)c1` [NHQM], the “Crosslinking efficiency of endogenous EGFR” value [5] was “comparable to the commercial crosslinker BS^3”, the “Pairs of crosslinked peptides identified” value (WT 14-3-3 protein; crosslinked 14-3-3, tandem MS) was “Eight” and the “Residues crosslinked with Lys” value (WT 14-3-3 protein; crosslinked 14-3-3, tandem MS) was “Arg, Asn, Gln, Glu, Lys, or Ser”. For the same molecule, the “Cα-Cα distance of the crosslink exceeding the limit” value (WT 14-3-3 protein; limit ~22 Å) was 23.7 Å, the “SSB-M13mp18 crosslinking (upshift of minor form)” value [6] was “only in the presence of both NHQM treatment and UV activation was the minor form of M13mp18 upshifted into the well” and the “SSB-DNA crosslinking (upshifted band)” value [4] was “upshifted band was only observed for the SSB-19(3×) or SSB-ATC(4×) complex treated with both NHQM and UV light”. The “EGFR dimer on Western blot” value [7] was “EGFR dimer was detected”, the “Crosslinked dimer of 14-3-3 WT versus crosslinker amount” value ([8]; 0-0.4 mM NHQM, UV 365 nm 15 min) was “increased with higher NHQM concentration” and the “UV exposure at which crosslinking of 14-3-3 could be observed” value ([8]; 1 mM NHQM, UV 365 nm, SDS-PAGE) was 1 min. For the same molecule, the “Crosslinked dimer of 14-3-3” value ([8]; 1 mM crosslinker, with or without UV 365 nm, SDS-PAGE) was “detected only with addition of NHQM crosslinker and UV illumination”, the “Efficiency of dimeric crosslinking of 14-3-3 in live mammalian cells” value [9] was < 10% and the “Crosslinking of endogenous proteins to Trx” value (Thioredoxin (Trx)) was “many endogenous proteins were crosslinked to Trx”. The “Crosslinking of 14-3-3 QQR” value (14-3-3(QQR) mutant) was “remained a monomer even at NHQM concentration up to 0.4 mM”, the “Efficiency of dimeric crosslinking of GST in live mammalian cells” value [10] was < 10% and the “Dimeric crosslinking of 14-3-3 WT in cell lysate” value [11] was “crosslinked as dimer”. For the same molecule, the “Dimeric crosslinking of 14-3-3 QQR mutant in cell lysate” value [12] was “not the QQR mutant”.
